Paper PMC10383864, “Novel 2-Sulfanylquinazolin-4(3H)-one Derivatives as Multi-Kinase Inhibitors and Apoptosis Inducers: A Synthesis, Biological Evaluation, and Molecular Docking Study” (Molecules, 2023)

Tests used:
HepG2 cells [1] = experiment: Annexin V-FITC/PI apoptosis assay; assay type: cell-based, human; settings: HepG2, 7.1 µM, 24 h
Experimental: (§1) In order to investigate apoptosis, the most cytotoxic compound in anti-proliferative assay 5d was further exposed to […] using the standard Annexin V/PI double staining procedure.
The apoptotic and necrotic effect of compound 5d was investigated using flow cytometry, as described in [43]. The HepG2 cells were treated with 7.1 µM of compound 5d for 24 h. After treatment, the cells were collected by trypsinization, centrifuged, and washed two times with PBS. A suspension of cells in 500 μL binding buffer was double stained with 5 μL Annexin V-FITC and 5 μL PI in the dark at room temperature for 15 min. The stained cells were measured using an Epics XL-MCL™ Flow Cytometer (Beckman Coulter), and the data were analyzed using Flowing software (version 2.5.1, Turku Centre for Biotechnology, Turku, Finland).

HepG2 cells [2] = experiment: Flow cytometry analysis of cell cycle; assay type: cell-based, human; settings: HepG2, 7.1 µM, 24 h
Experimental: as §1
Flow cytometry analysis was conducted to assess the effect of compound 5d on the cell cycle distribution in HepG2 cells. The Flow Cytometry Kit for cell cycle analysis (ab139418_Propidium Iodide Flow Cytometry Kit/BD) was used in this test. First, the HepG2 cells were seeded in six-well plates at a density of 2 × 10^5 cells/well and incubated for 24 h. In the second step, 10% FBS was added, and the cells were incubated at 37 °C and 5% CO2. The medium was replaced with (DMSO 1% v/v) containing 7.1 µM of compound 5d and then incubated for 24 h. After that, the cells were fixed with 70% ethanol at 4 °C for 12 h and washed with cold PBS, and then rinsed with PBS. In the last step, 100 μL of RNase A was added to each well and incubated at 37 °C for 30 min and stained with 400 μL PI in the dark at room temperature for an additional 30 min. The stained cells were measured using an Epics XL-MCL™ Flow Cytometer (Beckman Coulter), and the data were analyzed using Flowing software (version 2.5.1, Turku Centre for Biotechnology, Turku, Finland).

CDK2 = molecular target: T1, CDK2 (Homo sapiens, UniProt P24941); experiment: Kinase inhibition, ELISA kit; assay type: biochemical; settings: mean ± SD of three experiments
T1 construct: purchased
Experimental: (§2) The corresponding kinase inhibitory kit assays were used, and the results are expressed as IC50 values (µM), as presented in Table 2.
(§3) Afterward, the plate was incubated at room temperature for 2.5 h and then washed with PBS. A total of 100 μL of the prepared biotin antibody was added and incubated at room temperature for an additional 1 h, and then 100 μL of streptavidin solution was added and incubated at room temperature for another 45 min. After washing, 100 μL of TMB substrate reagent was added and incubated for 30 min at room temperature. Finally, about 50 μL of the stop solution was added and then read at 450 nm immediately. A standard curve was drawn, with concentrations on the X-axis and absorbance on the Y-axis.

HER2 = molecular target: T2, HER2 (Homo sapiens, UniProt P04626); experiment: Kinase inhibition, ELISA kit; assay type: biochemical; settings: mean ± SD of three experiments
T2 construct: purchased
T2 sequence (P04626 23-1255): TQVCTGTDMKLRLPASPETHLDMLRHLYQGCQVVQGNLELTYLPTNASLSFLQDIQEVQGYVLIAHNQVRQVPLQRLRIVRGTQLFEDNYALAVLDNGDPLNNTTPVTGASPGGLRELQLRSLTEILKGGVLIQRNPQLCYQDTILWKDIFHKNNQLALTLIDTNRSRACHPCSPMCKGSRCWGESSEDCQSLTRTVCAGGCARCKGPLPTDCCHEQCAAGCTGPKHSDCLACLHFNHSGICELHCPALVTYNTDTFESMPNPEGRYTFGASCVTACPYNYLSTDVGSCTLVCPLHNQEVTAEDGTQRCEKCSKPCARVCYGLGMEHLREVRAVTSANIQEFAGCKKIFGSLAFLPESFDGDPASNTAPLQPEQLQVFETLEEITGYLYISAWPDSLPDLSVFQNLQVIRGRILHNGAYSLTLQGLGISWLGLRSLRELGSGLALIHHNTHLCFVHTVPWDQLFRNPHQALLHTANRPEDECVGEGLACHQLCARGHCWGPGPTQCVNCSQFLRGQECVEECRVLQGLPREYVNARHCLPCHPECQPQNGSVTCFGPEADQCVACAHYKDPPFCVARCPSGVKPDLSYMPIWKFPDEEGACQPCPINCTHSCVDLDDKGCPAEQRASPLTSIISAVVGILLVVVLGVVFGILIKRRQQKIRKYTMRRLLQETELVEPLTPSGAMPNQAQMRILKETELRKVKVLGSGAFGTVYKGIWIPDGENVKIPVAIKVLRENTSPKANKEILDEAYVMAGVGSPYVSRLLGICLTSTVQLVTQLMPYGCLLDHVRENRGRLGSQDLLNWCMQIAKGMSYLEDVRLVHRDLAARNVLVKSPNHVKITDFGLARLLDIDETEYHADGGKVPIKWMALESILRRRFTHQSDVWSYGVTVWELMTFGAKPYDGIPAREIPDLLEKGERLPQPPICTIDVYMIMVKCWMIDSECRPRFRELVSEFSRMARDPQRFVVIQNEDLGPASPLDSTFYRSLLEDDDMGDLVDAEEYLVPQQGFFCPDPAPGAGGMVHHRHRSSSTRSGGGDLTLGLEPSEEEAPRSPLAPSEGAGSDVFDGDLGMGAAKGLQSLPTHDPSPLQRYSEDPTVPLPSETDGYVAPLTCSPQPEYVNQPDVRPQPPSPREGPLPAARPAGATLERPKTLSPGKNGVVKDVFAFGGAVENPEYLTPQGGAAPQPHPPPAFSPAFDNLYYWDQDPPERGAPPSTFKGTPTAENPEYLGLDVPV
Experimental: as §2, §3

## Cc1ccc(-n2c(SCc3ccc(Cl)cc3)nc3ccc(F)cc3c2=O)cc1 [Compound 5d, 2-(4-Chloro-benzylsulfanyl)-6-fluoro-3-(4-methylArenyl)-3H-quinazolin-4-one]
HepG2 cells [1]; control 1.45%
  necrosis, % of cell population: 3.08%
HepG2 cells [1]; control 2.28%
  total apoptosis, % of cell population: 28.04%
HepG2 cells [2]
  phase of cell cycle arrest: S phase
HepG2 cells [2]; in comparison to the control
  drop in the cell population at the G0-G1 phase: 4.5%
  drop in the cell population at the G2/M phase: 4.73%
  increase in the cell population in the S phase: 9.23%
CDK2
  IC50: 2100 ± 126 nM
HER2
  IC50: 184 ± 8 nM
